In ChEMBL document CHEMBL1201862, “PubChem BioAssay data set” (2004):
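96-well plates; 48 h exposure; 5 concentrations. Endpoints by linear interpolation between flanking doses. Not reached: highest tested concentration assigned. Here, GI50 denotes the concentration required for 50% inhibition of growth.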 Activity calls are given as the source filed them. Cut-off read from the data, not from the text of the source: active = GI50 up to about 1.1 µM and inactive = higher.

Assays:
Experiment in all cases: inhibition of tumour cell growth, NCI panel, 48 h
CCRF-CEM = test system: CCRF-CEM
HOP-62 = test system: HOP-62
NCI-H23 = test system: NCI-H23
M14 = test system: M14
MOLT-4 = test system: MOLT-4
HCC 2998 = test system: HCC 2998
A498 = test system: A498
M19-MEL = test system: M19-MEL
HCT-15 = test system: HCT-15
SK-MEL-2 = test system: SK-MEL-2
UO-31 = test system: UO-31
HL-60 = test system: HL-60
786-0 = test system: 786-0
HOP-92 = test system: HOP-92
SNB-19 = test system: SNB-19
SF-295 = test system: SF-295
KM-20L2 = test system: KM-20L2
DLD-1 = test system: DLD-1
NCI-H226 = test system: NCI-H226
Malme-3M = test system: Malme-3M
NCI-H522 = test system: NCI-H522
OVCAR-4 = test system: OVCAR-4
SN12C = test system: SN12C
SF-268 = test system: SF-268
SK-MEL-28 = test system: SK-MEL-28
SF-539 = test system: SF-539
DMS-273 = test system: DMS-273
SNB-75 = test system: SNB-75
SNB-78 = test system: SNB-78
OVCAR-8 = test system: OVCAR-8
U-251 = test system: U-251
SK-OV-3 = test system: SK-OV-3
OVCAR-3 = test system: OVCAR-3
RPMI-8226 = test system: RPMI-8226
RXF 393 = test system: RXF 393
NCI-H460 = test system: NCI-H460
ACHN = test system: ACHN
CAKI-1 = test system: CAKI-1
K562 = test system: K562
SK-MEL-5 = test system: SK-MEL-5
LOX IMVI = test system: LOX IMVI
COLO 205 = test system: COLO 205
OVCAR-5 = test system: OVCAR-5
UACC-62 = test system: UACC-62
IGROV-1 = test system: IGROV-1
HT-29 = test system: HT-29
EKVX = test system: EKVX
DMS-114 = test system: DMS-114
TK-10 = test system: TK-10
SW-620 = test system: SW-620
A549 = test system: A549
KM12 = test system: KM12
UACC-257 = test system: UACC-257
SR = test system: SR
HCT-116 = test system: HCT-116

In the case of `Cc1ccc(S(=O)(=O)N(/N=C/C=C/c2ccccc2)c2nnc(-c3ccccc3)c(-c3ccccc3)n2)cc1`, the GI50 (CCRF-CEM) is reported as 21.9 µM (inactive), the GI50 (HOP-62) is reported as 18.3 µM (inactive) and the GI50 (NCI-H23) is reported as 15.8 µM (inactive). For the same compound, the GI50 (M14) was 20.8 µM (inactive), the GI50 (MOLT-4) was 12.9 µM (inactive) and the GI50 (HCC 2998) was 13.3 µM (inactive). The GI50 (A498) was 36.8 µM (inactive), the GI50 (M19-MEL) was 28.1 µM (inactive) and the GI50 (HCT-15) was 25.6 µM. The GI50 (SK-MEL-2) was 17 µM (inactive), the GI50 (UO-31) was 5.86 µM (inactive) and the GI50 (HL-60) was 14.9 µM (inactive). The GI50 (786-0) was 20.8 µM (inactive), the GI50 (HOP-92) was 19 µM (inactive) and the GI50 (SNB-19) was 71.9 µM (inactive). The GI50 (SF-295) was 19 µM (inactive), the GI50 (KM-20L2) was 17.9 µM (inactive) and the GI50 (DLD-1) was 21.9 µM (inactive). The GI50 (NCI-H226) was 18.3 µM (inactive), the GI50 (Malme-3M) was 30 µM (inactive) and the GI50 (NCI-H522) was 15.9 µM (inactive). For the same compound, the GI50 (OVCAR-4) was 9.82 µM (inactive), the GI50 (SN12C) was 38.4 µM (inactive) and the GI50 (SF-268) was 25.9 µM (inactive). The GI50 (SK-MEL-28) was 26.3 µM (inactive), the GI50 (SF-539) was 16.1 µM (inactive) and the GI50 (DMS-273) was 18.9 µM (inactive). For the same compound, the GI50 (SNB-75) was 22.4 µM (inactive), the GI50 (SNB-78) was 16.8 µM (inactive) and the GI50 (OVCAR-8) was 25.6 µM (inactive). The GI50 (U-251) was 32.1 µM (inactive), the GI50 (SK-OV-3) was 34.5 µM (inactive) and the GI50 (OVCAR-3) was 20.1 µM (inactive). The GI50 (RPMI-8226) was 11.3 µM (inactive), the GI50 (RXF 393) was 19 µM (inactive) and the GI50 (NCI-H460) was 21.7 µM (inactive). For the same compound, the GI50 (ACHN) was 29.8 µM (inactive), the GI50 (CAKI-1) was 17.9 µM (inactive) and the GI50 (K562) was 15 µM (inactive). The GI50 (SK-MEL-5) was 14.9 µM (inactive), the GI50 (LOX IMVI) was 21.5 µM (inactive) and the GI50 (COLO 205) was 16.9 µM (inactive). For the same compound, the GI50 (OVCAR-5) was 41.2 µM (inactive), the GI50 (UACC-62) was 26.7 µM (inactive) and the GI50 (IGROV-1) was 34.6 µM (inactive). For the same compound, the GI50 (HT-29) was 0.619 µM (active), the GI50 (EKVX) was 24.9 µM (inactive) and the GI50 (DMS-114) was 16.3 µM (inactive). For the same compound, the GI50 (TK-10) was 24.7 µM (inactive), the GI50 (SW-620) was 30.4 µM (inactive) and the GI50 (A549) was 16.9 µM (inactive). The GI50 (KM12) was 23 µM (inactive) and the GI50 (UACC-257) was 13.3 µM (inactive).
In the case of `COC(=O)C1C2CC3C(OC(=O)C31)C2I` (stereo unspecified), the GI50 (HOP-62) is reported as > 100 µM (inactive), the GI50 (NCI-H23) is reported as > 100 µM (inactive) and the GI50 (M14) is reported as > 100 µM (inactive). For the same compound, the GI50 (MOLT-4) was > 100 µM (inactive), the GI50 (HCC 2998) was > 100 µM (inactive) and the GI50 (A498) was > 100 µM (inactive). For the same compound, the GI50 (M19-MEL) was > 100 µM (inactive), the GI50 (HCT-15) was over 100 µM and the GI50 (SK-MEL-2) was > 100 µM (inactive). The GI50 (UO-31) was > 100 µM (inactive), the GI50 (HL-60) was > 100 µM (inactive) and the GI50 (786-0) was > 100 µM (inactive). The GI50 (HOP-92) was > 100 µM (inactive), the GI50 (SNB-19) was > 100 µM (inactive) and the GI50 (SR) was > 100 µM (inactive). For the same compound, the GI50 (SF-295) was > 100 µM (inactive), the GI50 (KM-20L2) was > 100 µM (inactive) and the GI50 (NCI-H226) was > 100 µM (inactive). The GI50 (Malme-3M) was > 100 µM (inactive), the GI50 (NCI-H522) was > 100 µM (inactive) and the GI50 (OVCAR-4) was > 100 µM (inactive). For the same compound, the GI50 (SN12C) was > 100 µM (inactive), the GI50 (SF-268) was > 100 µM (inactive) and the GI50 (SK-MEL-28) was > 10 µM (inactive). The GI50 (SF-539) was > 100 µM (inactive), the GI50 (DMS-273) was > 100 µM (inactive) and the GI50 (SNB-75) was > 100 µM (inactive). For the same compound, the GI50 (SNB-78) was > 100 µM (inactive), the GI50 (OVCAR-8) was > 100 µM (inactive) and the GI50 (U-251) was > 100 µM (inactive). For the same compound, the GI50 (SK-OV-3) was > 100 µM (inactive), the GI50 (OVCAR-3) was > 100 µM (inactive) and the GI50 (RPMI-8226) was > 100 µM (inactive). For the same compound, the GI50 (RXF 393) was > 10 µM (inactive), the GI50 (NCI-H460) was > 100 µM (inactive) and the GI50 (ACHN) was > 100 µM (inactive). For the same compound, the GI50 (CAKI-1) was > 100 µM (inactive), the GI50 (K562) was > 100 µM (inactive) and the GI50 (SK-MEL-5) was > 100 µM (inactive). For the same compound, the GI50 (LOX IMVI) was > 100 µM (inactive), the GI50 (COLO 205) was > 100 µM (inactive) and the GI50 (OVCAR-5) was > 100 µM (inactive). For the same compound, the GI50 (UACC-62) was > 100 µM (inactive), the GI50 (IGROV-1) was > 100 µM (inactive) and the GI50 (HT-29) was > 100 µM (inactive). The GI50 (EKVX) was > 100 µM (inactive), the GI50 (HCT-116) was > 100 µM (inactive) and the GI50 (DMS-114) was > 100 µM (inactive). For the same compound, the GI50 (TK-10) was > 10 µM (inactive), the GI50 (SW-620) was > 100 µM (inactive) and the GI50 (A549) was > 100 µM (inactive). The GI50 (KM12) was > 100 µM (inactive) and the GI50 (UACC-257) was > 100 µM (inactive).
